From article PMC8273893 (Journal of Medicinal Chemistry, 2021)

Experiments:
Plasma stability = format: in vitro ADME; details: 5 μM, 50% human plasma in PBS, 1 h, 37 °C
[1] = Parallel artificial membrane permeability assay; format: in vitro ADME; details: 500 μM in donor, 20 h

O=C(O)c1ccc(-c2nn(C(=O)c3c(Cl)cccc3C(F)(F)F)c3ccccc23)cc1 [Compound 1, reference compound]
plasma stability (% remaining) (Plasma stability): 95.5 % remaining | PAMPA (% flux) [1]: 29.7 % flux

O=C(O)c1ccc(NCc2c(-c3c(Cl)cccc3C(F)(F)F)noc2-c2cc[nH]c2)cc1 [Compound 2, 4-(((3-(2-Chloro-6-(trifluoromethyl)phenyl)-5-(1H-pyrrol-3-yl)isoxazol-4-yl)methyl)amino) Benzoic Acid]
plasma stability (% remaining) (Plasma stability): 79.1 % remaining | PAMPA (% flux) [1]: 36.1 % flux

O=C(O)c1ccc(OCc2c(-c3c(Cl)cccc3C(F)(F)F)noc2-c2cc[nH]c2)cc1 [Compound 3, 4-((3-(2-Chloro-6-(trifluoromethyl)phenyl)-5-(1H-pyrrol-3-yl)isoxazol-4-yl)methoxy) Benzoic Acid]
plasma stability (% remaining) (Plasma stability): 74.2 % remaining | PAMPA (% flux) [1]: 40.9 % flux

O=C(O)c1ccc(/C=C/c2c(-c3c(Cl)cccc3C(F)(F)F)noc2-c2cc[nH]c2)cc1 [Compound 6, (E)-4-(2-(3-(2-Chloro-6-(trifluoromethyl)phenyl)-5-(1H-pyrrol-3-yl)isoxazol-4-yl)vinyl) Benzoic Acid]
plasma stability (% remaining) (Plasma stability): 59.5 % remaining | PAMPA (% flux) [1]: 40.3 % flux

O=C(O)c1ccc(OCc2c(-c3c(Cl)cccc3C(F)(F)F)noc2-c2cc[nH]c2)cc1F [Compound 9, 4-((3-(2-Chloro-6-(trifluoromethyl)phenyl)-5-(1H-pyrrol-3-yl)isoxazol-4-yl)methoxy)-2-fluorobenzoic Acid]
plasma stability (% remaining) (Plasma stability): 97.1 % remaining | PAMPA (% flux) [1]: 37.3 % flux

O=C(O)c1ccc(OCc2c(-c3c(Cl)cccc3C(F)(F)F)noc2-c2ccc[nH]2)cc1 [Compound 10, 4-((3-(2-Chloro-6-(trifluoromethyl)phenyl)-5-(1H-pyrrol-2-yl)isoxazol-4-yl)methoxy) Benzoic Acid]
plasma stability (% remaining) (Plasma stability): 89.5 % remaining | PAMPA (% flux) [1]: 50.5 % flux

O=C(O)c1ccc(OCc2c(-c3c(Cl)cccc3C(F)(F)F)noc2-c2cn[nH]c2)cc1 [Compound 11, 4-((3-(2-Chloro-6-(trifluoromethyl)phenyl)-5-(1H-pyrazol-4-yl)isoxazol-4-yl)methoxy) Benzoic Acid]
plasma stability (% remaining) (Plasma stability): 100 % remaining | PAMPA (% flux) [1]: 23.0 % flux
